Reference: patent US10597388B2, “Pyridazinone herbicides” (FMC CORPORATION, priority 2014, dated 2020)

Columns and labels:
Assay in all cases: Test E greenhouse herbicide test, pre- and postemergence
Assay type in all cases: in vivo
[1] = tested on: sandbur (southem sandbur, Cenchrus echinatus)
Procedure, shortened: (§1)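 Pre- and postemergence sprays, same solvent–surfactant formulation. Substrate: silt loam (pre), peat-based mix (post, 1–4 leaf, 2–18 cm). Readout: visual control rating 0–100 against controls at 14–21 d.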

[2] = tested on: dayflower (Virginia (VA) dayflower, Commelina virginica)
Procedure, shortened: as §1

[3] = tested on: horseweed (Conyza canadensis); conditions: Postemergence
Procedure, shortened: as §1

[4] = tested on: panicum, fall (fall panicum, Panicum dichotomiflorum)
Procedure, shortened: as §1

[5] = tested on: velvetleaf (Abutilon theophrasti); conditions: Preemergence
Procedure, shortened: as §1

corn (Zea mays) = tested on: corn (Zea mays)
Procedure, shortened: as §1

[6] = tested on: barnyardgrass (Echinochloa crus-galli)
Procedure, shortened: as §1

[7] = tested on: foxtail, giant (giant foxtail, Setaria faberii); conditions: Preemergence
Procedure, shortened: as §1

[8] = tested on: pigweed, palmer (palmer pigweed, Amaranthus palmeri)
Procedure, shortened: as §1

[9] = tested on: nightshade (eastern black nightshade, Solanum ptycanthum); conditions: Preemergence
Procedure, shortened: as §1

[10] = tested on: arrowleaf sida (Sida rhombifolia)
Procedure, shortened: as §1

[11] = tested on: surinam grass (Brachiaria decumbens); conditions: Preemergence
Procedure, shortened: as §1

[12] = tested on: ragweed (common ragweed, Ambrosia elatior)
Procedure, shortened: as §1

[13] = tested on: crabgrass, large (large crabgrass, Digitaria sanguinalis); conditions: Preemergence
Procedure, shortened: as §1

[14] = tested on: momingglory (Ipomoea coccinea); conditions: Preemergence
Procedure, shortened: as §1

[15] = tested on: lambsquarters (Chenopodium album); conditions: Preemergence
Procedure, shortened: as §1

[16] = tested on: goosegrass (Eleusine indica); conditions: Preemergence
Procedure, shortened: as §1

[17] = 62 g ai/ha, Preemergence, scale 0 to 100 (0 no effect, 100 complete control)
[18] = 125 g ai/ha, Postemergence, scale 0 to 100 (0 no effect, 100 complete control)
[19] = 125 g ai/ha, Preemergence, scale 0 to 100 (0 no effect, 100 complete control)
[20] = 250 g ai/ha, Postemergence, scale 0 to 100 (0 no effect, 100 complete control)
[21] = Postemergence, 31 g ai/ha, visual, scale 0 no effect to 100 complete control
[22] = Preemergence, 31 g ai/ha, scale 0 to 100, 0 no effect, 100 complete control
[23] = Preemergence, 250 g ai/ha, visual, scale 0 no effect to 100 complete control
[24] = 62 g ai/ha, Postemergence, scale 0 to 100 (0 no effect, 100 complete control)
[25] = 62 g ai/ha, scale 0 to 100 (0 no effect, 100 complete control)
[26] = 125 g ai/ha, scale 0 to 100 (0 no effect, 100 complete control)
[27] = 31 g ai/ha, scale 0 to 100, 0 no effect, 100 complete control
[28] = 250 g ai/ha, visual, scale 0 no effect to 100 complete control

Compound: Cc1cc(C)c2sc(C)c(-c3c(OC(=O)OCCCl)c(C)nn(C)c3=O)c2c1 [Compound 85]
- Plant response rating, Sandbur [1, 17]: 50
- Plant response rating, Sandbur [1, 18]: 70
- Plant response rating, Sandbur [1, 19]: 80
- Plant response rating, Sandbur [1, 20]: 70
- Plant response rating, Sandbur [1, 21]: 40
- Plant response rating, Sandbur [1, 22]: 0
- Plant response rating, Sandbur [1, 23]: 90
- Plant response rating, Dayflower, VA [2, 24]: 60
- Plant response rating, Dayflower, VA [2, 17]: 0
- Plant response rating, Dayflower, VA [2, 18]: 60
- Plant response rating, Dayflower, VA [2, 19]: 30
- Plant response rating, Dayflower, VA [2, 20]: 80
- Plant response rating, Dayflower, VA [2, 21]: 50
- Plant response rating, Dayflower, VA [2, 22]: 0
- Plant response rating, Dayflower, VA [2, 23]: 75
- Plant response rating, Horseweed [3, 25]: 85
- Plant response rating, Horseweed [3, 26]: 85
- Plant response rating, Horseweed ([3]; 250 g ai/ha, scale 0 to 100 (0 no effect, 100 complete control)): 90
- Plant response rating, Horseweed ([3]; 31 g ai/ha, visual, scale 0 no effect to 100 complete control): 60
- Plant response rating, Panicum, Fall [4, 24]: 75
- Plant response rating, Panicum, Fall [4, 17]: 85
- Plant response rating, Panicum, Fall [4, 18]: 80
- Plant response rating, Panicum, Fall [4, 19]: 98
- Plant response rating, Panicum, Fall [4, 20]: 95
- Plant response rating, Panicum, Fall [4, 21]: 75
- Plant response rating, Panicum, Fall [4, 22]: 95
- Plant response rating, Panicum, Fall [4, 23]: 100
- Plant response rating, Velvetleaf [5, 25]: 30
- Plant response rating, Velvetleaf [5, 26]: 70
- Plant response rating, Velvetleaf [5, 27]: 0
- Plant response rating, Velvetleaf [5, 28]: 95
- Plant response rating, Corn (corn (Zea mays); [24]): 0
- Plant response rating, Corn (corn (Zea mays); [17]): 0
- Plant response rating, Corn (corn (Zea mays); [18]): 0
- Plant response rating, Corn (corn (Zea mays); [19]): 0
- Plant response rating, Corn (corn (Zea mays); [20]): 5
- Plant response rating, Corn (corn (Zea mays); [21]): 0
- Plant response rating, Corn (corn (Zea mays); [22]): 0
- Plant response rating, Corn (corn (Zea mays); [23]): 0
- Plant response rating, Barnyardgrass [6, 24]: 30
- Plant response rating, Barnyardgrass [6, 17]: 0
- Plant response rating, Barnyardgrass [6, 18]: 20
- Plant response rating, Barnyardgrass [6, 19]: 30
- Plant response rating, Barnyardgrass [6, 20]: 30
- Plant response rating, Barnyardgrass [6, 21]: 20
- Plant response rating, Barnyardgrass [6, 22]: 0
- Plant response rating, Barnyardgrass [6, 23]: 35
- Plant response rating, Foxtail, Giant [7, 25]: 65
- Plant response rating, Foxtail, Giant [7, 26]: 95
- Plant response rating, Foxtail, Giant [7, 27]: 15
- Plant response rating, Foxtail, Giant [7, 28]: 100
- Plant response rating, Pigweed, Palmer [8, 24]: 80
- Plant response rating, Pigweed, Palmer [8, 17]: 30
- Plant response rating, Pigweed, Palmer [8, 18]: 80
- Plant response rating, Pigweed, Palmer [8, 19]: 50
- Plant response rating, Pigweed, Palmer [8, 20]: 80
- Plant response rating, Pigweed, Palmer [8, 21]: 65
- Plant response rating, Pigweed, Palmer [8, 22]: 25
- Plant response rating, Pigweed, Palmer [8, 23]: 90
- Plant response rating, Nightshade [9, 25]: 95
- Plant response rating, Nightshade [9, 26]: 100
- Plant response rating, Nightshade [9, 27]: 95
- Plant response rating, Nightshade [9, 28]: 100
- Plant response rating, Arrowleaf Sida [10, 24]: 50
- Plant response rating, Arrowleaf Sida [10, 17]: 0
- Plant response rating, Arrowleaf Sida [10, 18]: 50
- Plant response rating, Arrowleaf Sida [10, 19]: 50
- Plant response rating, Arrowleaf Sida [10, 20]: 50
- Plant response rating, Arrowleaf Sida [10, 21]: 40
- Plant response rating, Arrowleaf Sida [10, 22]: 0
- Plant response rating, Arrowleaf Sida [10, 23]: 70
- Plant response rating, Surinam Grass [11, 25]: 70
- Plant response rating, Surinam Grass [11, 26]: 70
- Plant response rating, Surinam Grass [11, 27]: 60
- Plant response rating, Surinam Grass [11, 28]: 90
- Plant response rating, Ragweed [12, 24]: 50
- Plant response rating, Ragweed [12, 17]: 80
- Plant response rating, Ragweed [12, 18]: 60
- Plant response rating, Ragweed [12, 19]: 90
- Plant response rating, Ragweed [12, 20]: 85
- Plant response rating, Ragweed [12, 21]: 50
- Plant response rating, Ragweed [12, 22]: 60
- Plant response rating, Ragweed [12, 23]: 98
- Plant response rating, Crabgrass, Large [13, 25]: 0
- Plant response rating, Crabgrass, Large [13, 26]: 0
- Plant response rating, Crabgrass, Large [13, 27]: 0
- Plant response rating, Crabgrass, Large [13, 28]: 25
- Plant response rating, Morningglory [14, 25]: 30
- Plant response rating, Morningglory [14, 26]: 50
- Plant response rating, Morningglory [14, 27]: 25
- Plant response rating, Morningglory [14, 28]: 100
- Plant response rating, Lambsquarters [15, 25]: 100
- Plant response rating, Lambsquarters [15, 26]: 100
- Plant response rating, Lambsquarters [15, 27]: 70
- Plant response rating, Lambsquarters [15, 28]: 100
- Plant response rating, Goosegrass [16, 25]: 5
- Plant response rating, Goosegrass [16, 26]: 5
- Plant response rating, Goosegrass [16, 27]: 5
- Plant response rating, Goosegrass [16, 28]: 20
